# Peptide text beside a SMILES is read from it. * marks the point of attachment. Biotin = O=C1N[C@H]2[C@H](CS[C@H]2CCCCC(=O)*)N1; Ahx = NCCCCCC(=O)O
# What was measured:
# HSV-1 KOS mutant hrR3 [1] = assay: Inactivation of pre-adsorbed virus (virus inactivation); type: cell-based; conditions: pre-adsorbed virus
# Procedure: Two assays were used to assess the ability of the TAT peptides to inhibit infection of Vero cells with the hrR3 virus. In both assays, the virus was preadsorbed to cells at 4° C. and entry was initiated in the presence of peptide by shifting the cultures to a permissive temperature (30-37° C.). One hour later, the peptide was rinsed off. The entry blocking activity was measured in half of the cultures, in which any extracellular virus remaining after the peptide treatment was inactivated with low pH citrate buffer. The rest of the cultures were exposed to PBS instead of citrate buffer and used to measure virus inactivation. Virus inactivation depended on persistent effects of the peptide lasting for a period of eight hours. At the end of that period, all cultures were fixed and infected cells were detected by staining with X-gal.
# Virus (m.o.i.=0.025) was preadsorbed to Vero cells for 1 h at 4° C. before cultures were exposed to TAT-C (FIG. 15A), bTAT-9X (FIG. 15B), or n50,51TAT-C (FIGS. 15C, 15D) for 1 h at 33 (FIGS. 15A, 15B), 31 (FIG. 15C), or 37° C. (FIG. 15D). […] Inhibition of entry was measured in the citrate-treated cultures, in which any remaining external virus was inactivated immediately following exposure to peptide (●). Persistent virus inactivation lasting, at least in part, for the 8 h period following exposure to peptide, was measured in the PBS-treated cultures (◯). The IC50s measured in these experiments are included in Table 5.
# hrR3 virions = assay: Inactivation of virions in solution; type: cell-based, HSV-1; conditions: 200 μM peptide
# Procedure: Inactivation of virions: To assess the ability of peptides to inactivate virions, 3-4×10^6 pfu/mL of virus was mixed on ice with peptide in serum-free DMEM and incubated for 1 h at 4 or 37° C. Aliquots (10 μL) were diluted 1000-fold into peptide-free serum-supplemented DMEM at 23° C. and 50 μL aliquots were assayed in triplicate for infectivity in Vero cell cultures (dilution assay). Alternatively, 10 μL aliquots were diluted into 1 mL of ice-cold peptide-free serum-supplemented DMEM and the virus was pelleted as described above (centrifugation assay). Viral pellets were then resuspended in 250 μL serum-supplemented DMEM and 50 μL aliquots were assayed in triplicate for infectivity in Vero cell cultures.
# Some of the virus diluted without the addition of NaCl was pelleted immediately (Control), while the rest of the diluted virus was stored at 4° C. and pelleted 19 h later. The virus was pelleted and assayed for infectivity as described in Example 1.
# HSV-1 KOS mutant hrR3 [2] = assay: Release of preadsorbed virus into the culture medium; type: cell-based
# Procedure: Release of preadsorbed virus into the culture medium: Virus preadsorbed to Vero cells (m.o.i.=0.02) was exposed to heparin (porcine intestinal mucosa; Sigma-Aldrich Co., St. Louis Mo.; #H9399) or to peptides in 40 μL of serum-supplemented DMEM. After 1 h at 4° C., the culture medium and two 40 μL rinses were collected and pooled from eight identically treated wells. Pooled samples were centrifuged at 14,000×g in an Eppendorf 5415 centrifuge for 99 min at 4° C. or they were first adjusted to 0.5 M NaCl by adding 2 M NaCl dissolved in serum-supplemented DMEM prior to centrifugation. Supernatants were aspirated, the pellets were resuspended in 120 μL serum-supplemented DMEM and duplicate 50 μL aliquots were assayed for infectivity in Vero cell cultures. Calculations of the amount of released virus assumed 47% virus recovery in the centrifugation step, since control experiments had established that 47% of virus input was recovered regardless of whether the virus was sedimented in the presence or absence of 0.5 M NaCl.
# In this example pre-adsorbed virus was exposed to heparin (FIG. 19 Panels A, B) or TAT-Cd peptide (FIG. 19 Panels C, D) for 1 h at 4° C. (FIG. 19 Panels A, B, C) or 18° C. (FIG. 19 Panel D) and any virus released into the culture medium during this time was collected and pelleted in the presence (◯) or absence (▴) of 0.5 M NaCl and assayed for infectivity as described in Example 1. […] Virus inhibition (●) corresponds to the number of LacZ+ cells seen in the absence of inhibitor minus the number of LacZ+ cells seen in the presence of inhibitor and is equivalent to the maximal amount of virus potentially released into the culture medium as a result of virus inhibition. Panel B compares the amount of infectious virus recovered in the presence (◯; data from Panel A) and absence (▴) of 0.5 M NaCl at an expanded scale.
# trypsin = biological target: T1, trypsin (Sus scrofa, UniProt P00761); assay: Trypsinization of peptides; conditions: 0.005 or 0.01% trypsin, 1 h at 37° C.
# T1 construct: purchased BioWhittaker 17-160E
# T1 sequence (P00761 9-231): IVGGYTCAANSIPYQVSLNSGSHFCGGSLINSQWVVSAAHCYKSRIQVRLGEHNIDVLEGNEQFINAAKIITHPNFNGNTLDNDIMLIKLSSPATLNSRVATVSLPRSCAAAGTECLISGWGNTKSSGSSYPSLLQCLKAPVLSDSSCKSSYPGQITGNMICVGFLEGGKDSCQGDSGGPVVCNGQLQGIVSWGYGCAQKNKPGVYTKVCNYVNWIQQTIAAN
# Procedure: Trypsinization of peptides: Peptides dissolved in serum-free DMEM were exposed to 0.005 or 0.01% trypsin for 1 h at 37° C. The trypsin was then inactivated with a 1.3-fold molar excess of soybean trypsin inhibitor and the ability of the peptides to inactivate virions was tested as described above (centrifugation assay). In controls, trypsin was inactivated before it was added to the peptides.
# In Panel B, peptides in serum-free medium were pre-treated with active trypsin (open bars) or inactivated trypsin (shaded bars) for 1 h at 37° C. before they were added to virions for 1 h at 37° C. (see Example 1). The treated virions were then pelleted and resuspended in serum-supplemented medium and assayed for infectivity without further trypsinization. The peptide concentrations were as high or higher than those used in Panel A: […] TAT-C, 50 μM bKLA, 200 μM EB and bHOM-9. Trypsin concentrations used in both Panels A and B, were 0.005% (for bKLA, EB and bHOM-9) or 0.01% (for TAT-C and the ‘no peptide’ control).
# cornea = assay: In vivo peptide toxicity, cornea; design: species or system BALB/C mice
# Procedure: (i) Cornea: Four-6-week-old female BALB/C mice (Harlan Sprague Dawley, Indianapolis, Ind.) were anesthetized by halothane inhalation (3-5%). A 2.0 μL drop of serum-free 5×DMEM solution containing 6.1 mM EB, 6.1 mM EBX, 7.5 mM TAT-C, 7.5 mM n50,51 TAT-C, 7.5 mM TAT-Cd, or 11.2 mM bHOMd or serum-free DMEM only (control) was then placed on the cornea and the mice were returned to their cages. Each group consisted of 5 mice, except for 11.2 mM bHOMd, and 7.5 mM TAT-Cd, which consisted of 4 mice. Only the right eye in each mouse received the peptide. Treatments were given 4 times per day at least 2 hrs apart for 7 days. On days 1, 5, and 7, the mice were examined microscopically for evidence of blepharitis, punctate keratopathy, dendrite ulceration and geographic ulceration. Damage to the corneal epithelium was assessed by staining with 1.0% […] and examination under a microscope with blue light. Blepharitis was scored: 1+ for noticeable puffy eyelids, 2+ for puffy eyelids with moderate crusting, 3+ for eye 50% swollen shut with severe crusting, and 4+ for eye totally swollen and crusted shut (Brandt et al., 1992). Punctate keratopathy, dendrite ulceration, and geographic ulceration were scored: 1+ for <25% of the cornea involved, 2+ for 25-50% involved, 3+ for 50-75% involved, and 4+ for >75% involved. The mean disease score for each group of mice on each day was calculated by the sum of disease scores in each group on each day divided by the numbers of mice in that group. On day 7, following the last treatment, the mice were sacrificed and the eyes were removed, fixed in 10% formalin, embedded in paraffin, sectioned (5μ each), and stained with hematoxylin and eosin as we have described previously (Brandt et al., 1996). Sections were then examined for evidence of damage to the cornea, sclera, lens, and retina.
# MTS assay [3] = conditions: human, CEMx174 cells (T-B hybridoma)
# MTS assay [4] = conditions: African green monkey, Vero cells
# MTS assay [5] = conditions: human, HeLa cells
# MTS assay [6] = conditions: human, DP-9 cells (foreskin fibroblast)
# MTS assay [7] = conditions: African green monkey, CV-1PD cells (kidney)
# MTS assay [8] = conditions: human, W12E cells (cervical carcinoma cell line)
# MTS assay [9] = conditions: human, NIKS cells (normal immortalized keratinocytes)
# MTS assay [10] = conditions: human, TM-1 cells (trabecular meshwork)
# [11] = system: Vero, HeLa, CV-1PD, TM-1, DP-9, CEMx174, NIKS, W12E cells; assay: MTS assay, eight cell lines; conditions: eight cell lines
# vagina = conditions: mouse, in vivo
compound,measurement,setting,value
"N=C(N)NCCC[C@@H](NC(=O)CN)C(=O)N[C@H](CCCCN)C(=O)N[C@H](CCCCN)C(=O)N[C@H](CCCNC(=N)N)C(=O)N[C@H](CCCNC(=N)N)C(=O)N[C@H](CCC(N)=O)C(=O)N[C@H](CCCNC(=N)N)C(=O)N[C@H](CCCNC(=N)N)C(=O)N[C@H](CCCNC(=N)N)C(=O)N[C@H](CS)C(=O)O [TAT-Cd, NH2-GRKKRRQRRRC-COOH]",plateau / maximal extent of virus inactivation,HSV-1 KOS mutant hrR3 [1],~100%
same,"recovery of infectious virions, of the mock-treated virus","hrR3 virions; 1 h at 37° C., pelleted immediately",< 1%
same,"increase of viral yields by 0.5 M NaCl during 19 h incubation, of the mock-treated controls",hrR3 virions; 19 h at 4° C.,about 1%
same,inactivation of preadsorbed virus,HSV-1 KOS mutant hrR3 [2]; 18° C.,93%
same,virus recovery,"HSV-1 KOS mutant hrR3 [2]; 18° C., 0.5 M NaCl",≤ 5.6%
same,potentially released virus actually recovered in the medium,"HSV-1 KOS mutant hrR3 [2]; 1 h treatment at 4° C., 0.5 M NaCl",4.4%
same,infectious preadsorbed virus recovered in the culture medium (maximal),"HSV-1 KOS mutant hrR3 [2]; summary, FIG. 19",about 5%
same,effect of trypsinization of the peptide on its antiviral activity,trypsin,no effect on antiviral activity
same,punctate keratopathy,cornea; calcein staining,very mild punctate keratopathy
same,blepharitis,cornea; four times a day for seven days,mild blepharitis
same,concentration at which not active against the H5 strain,H5 Avian Influenza virus,> 100 µM
same,inhibition after rinsing with 0.5 M NaCl,hrR3; 30 μM peptide 1 h at 4° C.,completely reversed
same,infection blocked,"hrR3; 30 μM peptide 1 h at 4° C., rinsed with culture medium alone",90%
same,time needed to induce cellular resistance,"hrR3; 30 μM peptide, 37° C.",almost instantaneously
CC[C@H](C)[C@H](NC(=O)[C@H](CCCCN)NC(=O)[C@@H](NC(=O)[C@H](CCC(N)=O)NC(=O)[C@H](CCCNC(=N)N)NC(=O)CCCCCNC(=O)CCCC[C@@H]1SC[C@@H]2NC(=O)N[C@@H]21)[C@@H](C)CC)C(=O)N[C@@H](Cc1c[nH]c2ccccc12)C(=O)N[C@@H](Cc1ccccc1)C(=O)N1CCC[C@H]1C(=O)N[C@@H](CC(N)=O)C(=O)N[C@@H](CCCNC(=N)N)C(=O)N[C@@H](CCCNC(=N)N)C(=O)N[C@@H](CCSC)C(=O)N[C@@H](CCCCN)C(=O)N[C@@H](Cc1c[nH]c2ccccc12)C(=O)N[C@@H](CCCCN)C(=O)N[C@@H](CCCCN)C(N)=O [bHOM] ({Biotin-Ahx}-RQIKIWFPNRRMKWKK-NH2; N-terminus and C-terminus assumed),EC50,MTS assay [3],50 µM
same,EC50,MTS assay [4],75 µM
same,EC50,MTS assay [5],100 µM
same,EC50,MTS assay [6],150 µM
same,EC50,MTS assay [7],180 µM
same,EC50,MTS assay [8],> 200 µM
same,EC50,MTS assay [9],> 200 µM
same,EC50,MTS assay [10],> 200 µM
same,"cytotoxicity to cells (MTS), overall",[11],generally not cytotoxic
nonoxynol-9 [N−9],effect on vaginal tissues (H&E sections),vagina,No differences in the appearance of the tissues

# From patent US7432045B2 (priority 2003, dated 2008)
